# In patent US20060264419A1 (priority 2003, published 2006):
# pIC50: −log10 of the molar value.
# Target: 5-HT2A receptors (Rattus norvegicus, UniProt P14842)
# Assay: in-vitro affinity to 5-HT2A receptors, displacement of [3H]ketanserine (Example A1)
# Assay type: binding
# Conditions: read-out: HT2A IC50
# Source text: The 5-HT2A receptors are exposed both to [^3H]ketanserine (a substance which is known for its affinity to the receptor) and also to the test compound. The decrease in the affinity of [^3H]ketanserine to the receptor is an indication of the affinity of the test substance to the 5-HT2A receptor.
# 5-HT2A receptors, sequence (P14842 whole entry): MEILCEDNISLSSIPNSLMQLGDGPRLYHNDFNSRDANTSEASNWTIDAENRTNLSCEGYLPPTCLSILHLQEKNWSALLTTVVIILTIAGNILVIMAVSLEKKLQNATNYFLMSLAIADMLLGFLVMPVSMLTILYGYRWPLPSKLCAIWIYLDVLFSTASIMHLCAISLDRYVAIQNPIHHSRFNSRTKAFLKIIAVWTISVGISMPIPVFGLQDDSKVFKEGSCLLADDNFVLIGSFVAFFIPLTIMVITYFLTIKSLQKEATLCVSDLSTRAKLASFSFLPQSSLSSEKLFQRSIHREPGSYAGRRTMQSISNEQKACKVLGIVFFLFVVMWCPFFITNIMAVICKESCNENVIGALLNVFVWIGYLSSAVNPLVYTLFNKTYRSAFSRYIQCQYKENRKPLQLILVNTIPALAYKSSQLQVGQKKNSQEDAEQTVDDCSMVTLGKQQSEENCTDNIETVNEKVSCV
row,pIC50,SMILES
1,6.57,"CCN(CC)CC1CCCCN1Cc1cnn(-c2ccc(-c3ccccc3)cc2)c1-c1ccccc1F (stereo not drawn) [Example 1028, {1-[1-Biphenyl-4-yl-5-(2-fluorophenyl)-1H-pyrazol-4-ylmethyl]piperidin-2-ylmethyl}-diethylamine]"
2,6.37,"OC1CCN(Cc2cnn(-c3ccc(-c4ccccc4)cc3)c2-c2ccccc2F)CC1 [Example 1053, 1-[1-Biphenyl-4-yl-5-(2-fluorophenyl)-1H-pyrazol-4-ylmethyl]piperidin-4-ol]"
3,6.85,"Cc1ccc(-c2c(CN3CCN(C)CC3)cnn2-c2ccc(-c3ccc(F)cc3)cc2)cc1 [Example 994, 1-[1-(4′-Fluorobiphenyl-4-yl)-5-p-tolyl-1H-pyrazol-4-ylmethyl]-4-methylpiperazine]"
4,6.41,"OC1CCN(Cc2cnn(-c3ccc(C(F)(F)F)cn3)c2-c2ccccc2F)C1 (stereo not drawn) [Example 1050, 1-[5-(2-Fluorophenyl)-1-(5-trifluoro-methylpyridin-2-yl)-1H-pyrazol-4-ylmethyl]pyrrolidin-3-ol]"
5,7.14,"CN1CCN(Cc2cnn(-c3ccc(-c4cccc(F)c4F)cc3)c2-c2ccccc2F)CC1 [Example 967, 1-[1-(2′,3′-Difluorobiphenyl-4-yl)-5-(2-fluoro-phenyl)-1H-pyrazol-4-ylmethyl]-4-methyl-piperazine]"
6,6.74,"Fc1ccccc1-c1c(CNCc2cccnc2)cnn1-c1ccc(-c2ccccc2)cc1 [Example 1004, [1-Biphenyl-4-yl-5-(2-fluorophenyl)-1H-pyrazol-4-ylmethyl]pyridin-3-ylmethylamine]"
7,6.51,"O=C(CN1CCN(Cc2cnn(-c3ccc(-c4ccccc4)cc3)c2-c2ccccc2F)CC1)N1CCCC1 [Example 1038, 2-{4-[1-Biphenyl-4-yl-5-(2-fluoro-phenyl)-1H-pyrazol-4-ylmethyl]piperazin-1-yl}-1-pyrrolidin-1-ylethanone]"
8,6.66,Cc1nn(-c2ccccc2)c(C)c1CN1CCN(C(=O)C(CCC(=O)O)N2C(=O)c3ccccc3C2=O)CC1 (stereo not drawn) [Example 1015]
9,6.70,"O=c1ccccn1Cc1cnn(-c2ccc(-c3ccccc3)cc2)c1-c1ccccc1F [Example 1012, 1-[1-Biphenyl-4-yl-5-(2-fluorophenyl)-1H-pyrazol-4-ylmethyl]-1H-pyridin-2-one]"
10,7.46,"CCN1CCN(Cc2cnn(-c3ccc(-c4ccc(F)cc4)cc3)c2-c2cccc(OC)c2)CC1 [Example 938, 1-Ethyl-4-[1-(4′-fluorobiphenyl-4-yl)-5-(3-methoxyphenyl)-1H-pyrazol-4-ylmethyl]-piperazine]"
11,6.89,"CC1CCN(Cc2cnn(-c3ccc(-c4ccccc4)cc3)c2-c2ccccc2F)CC1 [Example 986, 1-[1-Biphenyl-4-yl-5-(2-fluorophenyl)-1H-pyrazol-4-ylmethyl]-4-methylpiperidine]"
12,6.66,"Cc1cccc(-c2ccc(-n3ncc(CN4CCN(C)CC4)c3-c3ccccc3F)cc2)c1 [Example 1017, 1-[5-(2-Fluorophenyl)-1-(3′-methylbiphenyl-4-yl)-1H-pyrazol-4-ylmethyl]-4-methylpiperazine]"

# Same assay, conditions: target not given; description names affinity to 5-HT2A receptors; read-out: IC50
row,pIC50,SMILES
1,5.96,"CN1CCN(Cc2cnn(-c3ccc(-c4ccsc4)cc3)c2-c2ccc(F)cc2)CC1 [(102), 1-[5-(4-Fluorophenyl)-1-(4-thiophen-3-ylphenyl)-1H-pyrazol-4-ylmethyl]-4-methylpiperazine]"
2,6.08,"COC(=O)CCNCc1cnn(-c2ccc(-c3ccccc3)cc2)c1-c1cccnc1 [(183), Methyl 3-[(1-biphenyl-4-yl-5-pyridin-3-yl-1H-pyrazol-4-ylmethyl)amino]propionate]"
3,6.89,"Fc1ccccc1-c1c(CNCCCn2ccnc2)cnn1-c1ccc(-c2ccccc2)cc1 [(152), [1-Biphenyl-4-yl-5-(2-fluorophenyl)-1H-pyrazol-4-ylmethyl]-(3-imidazol-1-ylpropyl)amine]"
4,5.85,"COCCN(C)Cc1cnn(-c2ccc(-c3cc(F)ccc3F)nc2)c1-c1ccccc1F [(159), [1-[6-(2,5-Difluorophenyl)pyridin-3-yl]-5-(2-fluorophenyl)-1H-pyrazol-4-ylmethyl]-(2-methoxyethyl)-methylamine]"
5,6.43,"OCC(Cc1cnc[nH]1)NCc1cnn(-c2ccc(-c3ccccc3)cc2)c1-c1ccccc1F (stereo not drawn) [(137), 2-{[1-Biphenyl-4-yl-5-(2-fluorophenyl)-1H-pyrazol-4-ylmethyl]-amino}-3-(3H-imidazol-4-yl)propan-1-ol]"
6,6.43,"Fc1ccc(F)c(-c2ccc(-n3ncc(CNCC4CCCO4)c3-c3ccccc3F)cc2)c1 (stereo not drawn) [(122), [1-(2′,5′-Difluorobiphenyl-4-yl)-5-(2-fluorophenyl)-1H-pyrazol-4-ylmethyl](tetrahydrofuran-2-ylmethyl)amine]"
7,6.77,"Fc1ccccc1-c1c(CN2CC=CCC2)cnn1-c1ccc(-c2ccccc2)cc1 [(38), 1-[1-Biphenyl-4-yl-5-(2-fluorophenyl)-1H-pyrazol-4-ylmethyl]-1,2,3,6-tetrahydropyridine]"
8,5.77,"NC(=O)C1CCCN1Cc1cnn(-c2ccc(-c3ccccc3)cc2)c1-c1ccccc1F (stereo not drawn) [(155), 1-[1-Biphenyl-4-yl-5-(2-fluorophenyl)-1H-pyrazol-4-ylmethyl]-pyrrolidine-2-carboxamide]"
9,5.64,"Fc1ccccc1-c1c(CNc2cnccn2)cnn1-c1ccc(-c2ccccc2)cc1 [(158), [1-Biphenyl-4-yl-5-(2-fluorophenyl)-1H-pyrazol-4-ylmethyl]-pyrazin-2-ylamine]"
10,7.00,"CC1CN(Cc2cnn(-c3ccc(-c4ccccc4)cc3)c2-c2ccccc2F)CC(C)N1 (stereo not drawn) [(95), 1-[1-Biphenyl-4-yl-5-(2-fluorophenyl)-1H-pyrazol-4-ylmethyl]-3,5-dimethylpiperazine]"
11,6.49,"Fc1ccccc1-c1c(CNC2C3CNCC32)cnn1-c1ccc(-c2ccccc2)cc1 (stereo not drawn) [(192), (3-Azabicyclo[3.1.0]hex-6-yl)-[1-biphenyl-4-yl-5-(2-fluorophenyl)-1H-pyrazol-4-ylmethyl]amine]"
12,6.89,"N#CC(NCc1cnn(-c2ccc(-c3ccccc3)cc2)c1-c1ccccc1F)C(N)=O (stereo not drawn) [(136), 2-{[1-Biphenyl-4-yl-5-(2-fluorophenyl)-1H-pyrazol-4-ylmethyl]-amino}-2-cyanoacetamide]"
13,6.37,"CN1CCN(Cc2cnn(-c3ccc(-c4cc(F)ccc4F)nc3)c2-c2ccccc2F)CC1 [(147), 1-[1-[6-(2,5-Difluorophenyl)pyridin-3-yl]-5-(2-fluorophenyl)-1H-pyrazol-4-ylmethyl]-4-methylpiperazine]"
14,6.44,"O=C(c1cnn(-c2ccc(-c3ccccc3)cc2)c1-c1ccccc1F)N1CCOCC1 [(193), 1-[1-Biphenyl-4-yl-5-(2-fluorophenyl)-1H-pyrazol-4-yl]-1-morpholin-4-ylmethanone]"
15,6.52,"COCCN(C)Cc1cnn(-c2ccc(-c3ccccc3)nc2)c1-c1ccccc1F [(134), [5-(2-Fluorophenyl)-1-(6-phenylpyridin-3-yl)-1H-pyrazol-4-ylmethyl]-(2-methoxyethyl)methylamine]"

row,SMILES,pIC50
1,"CN1CCN(Cc2cnn(-c3ccc(-c4cc(F)ccc4F)cc3)c2-c2ccccc2F)CC1 [(65), 1-[1-(2′,5′-Difluorobiphenyl-4-yl)-5-(2-fluorophenyl)-1H-pyrazol-4-ylmethyl]-4-methylpiperazine]",7.26
2,"CN1CCN(Cc2cnn(-c3ccc(-c4ccccc4F)cc3)c2-c2ccccc2F)CC1 [(63), 1-[1-(2′-Fluorobiphenyl-4-yl)-5-(2-fluorophenyl)-1H-pyrazol-4-ylmethyl]-4-methylpiperazine]",7.03
3,"CN1CCN(Cc2cnn(-c3ccc(-c4cc(F)ccc4F)cc3)c2-c2ccccc2)CC1 [(68), 1-[1-(2′,5′-Difluorobiphenyl-4-yl)-5-phenyl-1H-pyrazol-4-ylmethyl]-4-methylpiperazine]",6.96
4,"O=C1CCCN1CCCNCc1cnn(-c2ccc(-c3ccccc3)cc2)c1-c1ccccc1F [(151), 1-(3-{[1-Biphenyl-4-yl-5-(2-fluorophenyl)-1H-pyrazol-4-ylmethyl]amino}propyl)pyrrolidin-2-one]",7.19
5,"CN1CC2CC1CN2Cc1cnn(-c2ccc(-c3ccccc3)cc2)c1-c1ccccc1F (stereo not drawn) [(109), 2-[1-Biphenyl-4-yl-5-(2-fluorophenyl)-1H-pyrazol-4-ylmethyl]-5-methyl-2,5-diazabicyclo[2.2.1]heptane]",7.03
6,"CCN1CCCC1CNCc1cnn(-c2ccc(-c3ccccc3)cc2)c1-c1ccccc1F (stereo not drawn) [(88), [1-Biphenyl-4-yl-5-(2-fluorophenyl)-1H-pyrazol-4-ylmethyl]-(1-ethylpyrrolidin-2-ylmethyl)amine]",7.70
7,"CC(C)(C)OC(=O)N1CCN(Cc2cnn(-c3ccc(C(F)(F)F)cc3)c2-c2ccccc2F)CC1 [(84), tert-Butyl 4-[5-(2-fluorophenyl)-1-(4-trifluoromethyl-phenyl)-1H-pyrazol-4-ylmethyl]piperazine-1-carboxylate]",8.10
8,"O=C1NCN(c2ccccc2)C12CCN(Cc1cnn(-c3ccc(-c4ccccc4)cc3)c1-c1ccccc1F)CC2 [(94), 8-[1-Biphenyl-4-yl-5-(2-fluorophenyl)-1H-pyrazol-4-ylmethyl]-1-phenyl-1,3,8-triazaspiro[4.5]decan-4-one]",6.40
9,"CN1CCN(Cc2cnn(-c3ccc(C(F)(F)F)cc3)c2-c2ccccc2F)CC1 [(87), 1-[5-(2-Fluorophenyl)-1-(4-trifluoromethylphenyl)-1H-pyrazol-4-ylmethyl]-4-methylpiperazine]",6.80
10,"CN1CCN(Cc2cnn(-c3ccc(OC(F)(F)F)cc3)c2-c2ccccc2F)CC1 [(115), 1-[5-(2-Fluorophenyl)-1-(4-trifluoromethoxyphenyl)-1H-pyrazol-4-ylmethyl]-4-methylpiperazine]",6.57
11,"Fc1ccccc1-c1c(CCN2CCOCC2)cnn1-c1ccc(-c2ccccc2)cc1 [(185), 4-{2-[1-Biphenyl-4-yl-5-(2-fluorophenyl)-1H-pyrazol-4-yl]ethyl}morpholine]",7.40
12,"CN1CCN(NCc2cnn(-c3ccc(-c4ccccc4)cc3)c2-c2ccccc2F)CC1 [(40), [1-Biphenyl-4-yl-5-(2-fluorophenyl)-1H-pyrazol-4-ylmethyl]-(4-methylpiperazin-1-yl)amine]",7.85
